Where two headings read alike, the source gives them in different places.
What was measured:
[1] = target: insulin glargine and prandial insulin (Homo sapiens, UniProt P01308, INS54RR/N110G)
Description: 0.25 ml of the insulin glulisine solution of example B3 is added to 0.75 ml of the solution of hydrophobized anionic molecule AA1/insulin glargine prepared according to the protocol described in example B6(a), so as to form 1 ml of a composition at pH 7. […] This clear solution is filtered through a 0.22 μm filter and then placed at +4° C.
0.25 ml of the insulin lispro solution of example B2 is added to 0.75 ml of the solution of hydrophobized anionic molecule AA1/insulin glargine prepared according to the protocol described in example B6(a), so as to form 1 ml of a composition at pH 7. […] This clear solution is filtered through a 0.22 μm filter and then placed at +4° C.
0.25 ml of the insulin aspart solution of example B1 is added to 0.75 ml of the solution of hydrophobized anionic molecule AA1/insulin glargine prepared in example B6(a), so as to form 1 ml of a composition at pH 7. […] This clear solution is filtered through a 0.22 μm filter and then placed at +4° C.
0.4 ml of the insulin lispro solution of example B2 is added to 0.6 ml of the solution of hydrophobized anionic molecule AA1/insulin glargine prepared in example 86(a), so as to form 1 ml of a composition at pH 7. […] This clear solution is filtered through a 0.22 μm filter and then placed at +4° C.
0.6 ml of the insulin lispro solution of example B2 is added to 0.4 ml of the solution of hydrophobized anionic molecule AA1/insulin glargine prepared in example B6(a), so as to form 1 ml of a composition at pH 7. […] This clear solution is filtered through a 0.22 μm filter and then placed at +4° C.
Compositions are prepared by mixing 0.75 ml of the hydrophobized anionic molecule AA1/insulin glargine solution prepared according to the protocol of example B6(a) with 0.25 ml of a prandial insulin, so as to form 1 ml of hydrophobized anionic molecule AA1/insulin glargine/prandial insulin composition (containing 7.5 mg/ml of hydrophobized anionic molecule AA1, 75 IU/ml of insulin glargine and 25 IU/ml of prandial insulin).

[2] = target: T1, insulin glargine (Homo sapiens, UniProt P01308, INS54RR/N110G); assay: Precipitation of hydrophobized anionic molecule/insulin glargine/prandial insulin compositions in PBS/BSA (examples B15-B17); type: physicochemical
T1 construct: substitution of asparagine residue A21 with a glycine residue; elongation of the C-terminal of the B chain of human insulin with two arginine residues; purchased SANOFI-AVENTIS (Lantus®); ELI LILLY (Humalog®)
Description: The PBS/BSA mixture simulates the composition of the subcutaneous medium.
(§1) Centrifugation at 4000 rpm is carried out in order to separate the precipitate from the supernatant. The insulin glargine is then assayed in the supernatant by RP-HPLC.
This composition is added to 2 ml of PBS containing 20 mg/ml of BSA. The PBS/BSA mixture simulates the composition of the subcutaneous medium. […] Centrifugation at 4000 rpm is carried out in order to separate the precipitate from the supernatant. The insulin glargine is then assayed in the supernatant by RP-HPLC.

[3] = target: T1, insulin glargine; assay: Precipitation of hydrophobized anionic molecule/insulin glargine composition in PBS/BSA mixture simulating the subcutaneous medium (examples B13, B14); type: physicochemical; details: 1 ml composition (10 mg/ml molecule, 100 IU/ml insulin glargine) added to 2 ml PBS containing 20 mg/ml BSA
Description: 1 ml of the insulin glargine solution of example B4 is added to 2 ml of a solution of PBS (phosphate buffered saline) containing 20 mg/ml of BSA (bovine serum albumin). The PBS/BSA mixture simulates the composition of the subcutaneous medium.
Centrifugation at 4000 rpm is carried out in order to separate the precipitate from the supernatant. The insulin glargine is then assayed in the supernatant by reverse-phase liquid chromatography (RP-HPLC).
1 ml of hydrophobized anionic molecule AA1/insulin glargine solution prepared in example B6(a) is added to 2 ml of a solution of PBS containing 20 mg/ml of BSA. The PBS/BSA mixture simulates the composition of the subcutaneous medium.
as §1
Solubilization and precipitation tests identical to those described in examples B6 and B14 were carried out with other hydrophobized anionic molecules at the same concentration of 10 mg/ml of hydrophobized anionic molecule for 100 IU/ml of insulin glargine solution.

[4] = background statement on marketed insulins; cited from earlier work
[5] = target: T1, insulin glargine; details: alone versus with the cyclodextrin, cited from earlier work
[6] = 7.5 mg/ml AA1, 75 IU/ml insulin glargine, 25 IU/ml prandial insulin, added to 2 ml PBS containing 20 mg/ml BSA
[7] = insulin glargine/insulin lispro 75/25 composition at pH 7, 1 ml added to 2 ml PBS containing 20 mg/ml BSA

T1 sequence (P01308 90-110 N110G limits assumed): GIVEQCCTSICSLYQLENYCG
T1 sequence (P01308 25-56 limits assumed, stated change not applied): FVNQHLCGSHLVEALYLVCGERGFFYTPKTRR

Substance	Insulin glargine precipitation [3]	Insulin glargine precipitation [2, 7]	further results
Human insulin (ActRapid ®): commercial 100 IU/ml solution of human insulin (NOVO NORDISK) [reference compound]			Solubilization of insulin glargine/prandial insulin 75/25 [1]: Yes; Insulin glargine precipitation [2, 6]: Yes
Insulin aspart (NovoLog ®): commercial 100 IU/ml solution of insulin aspart, fast-acting insulin analog (NOVO NORDISK) [reference compound]			Solubilization of insulin glargine/prandial insulin 75/25 [1]: Yes; Insulin glargine precipitation [2, 6]: Yes
Insulin glulisine (Apidra ®): commercial 100 IU/ml solution of insulin glulisine, fast-acting insulin analog (SANOFI-AVENTIS) [reference compound]			Insulin glargine precipitation [2, 6]: Yes
Insulin lispro (Humalog ®): commercial 100 IU/ml solution of insulin lispro, fast-acting insulin analog (ELI LILLY) [reference compound]			Solubilization of insulin glargine/prandial insulin 75/25 [1]: Yes; Insulin glargine precipitation [2, 6]: Yes
Sodium Maltooctaosemethylcarboxylate Functionalized with Cholesteryl Leucinate [AA5]	Yes	Yes	
Sodium Maltopentaosemethylcarboxylate Functionalized with Cholesteryl Leucinate [AA4]	Yes	Yes	
Sodium Maltotriosemethylcarboxylate Functionalized with 3,7-dimethyl-octanoyl Phenylalaninate [AA8]	Yes	Yes	
Sodium Maltotriosemethylcarboxylate Functionalized with (±)-α-tocopheryl Leucinate [AA9]	Yes	Yes	
Sodium Maltotriosemethylcarboxylate Functionalized with Cholesteryl 2-aminoethylcarbamate [AA7]	Yes	Yes	
Sodium Maltotriosemethylcarboxylate Functionalized with Cholesteryl Leucinate [AA1]	Yes		
Sodium Maltotriosemethylcarboxylate Functionalized with Cholesteryl Leucinate [AA3]		Yes	
Sodium Maltotriosemethylcarboxylate Functionalized with Dilauryl Aspartate [AA6]	Yes	Yes	
insulin glargine			duration of action / hypoglycemic effect [4]: 24 h; solubility of insulin glargine ([5]; pH 7.4, phosphate buffer): 5 µM; solubility of insulin glargine ([5]; pH 9.5): 750 µM
sulfobutyl ether-β-cyclodextrin [SVE4-β-CYD]			solubility of insulin glargine ([5]; pH 7.4, phosphate buffer): 8 µM; solubility of insulin glargine ([5]; pH 9.5): 1250 µM

— patent US20140235536A1, “INJECTABLE SOLUTION AT PH 7 COMPRISING AT LEAST ONE BASAL INSULIN THE ISOELECTRIC POINT OF WHICH IS COMPRISED IN 5.8 AND 8.5 AND AN ANIONIC COMPOUND BEARING CARBOXYLATE CHARGES AND HYDROPHOBIC RADICALS” (ADOCIA, priority 2013, published 2014)
